Here are results for four compounds from patent publication US5100907A, “Hydantoin esters” (Lonza, Inc., priority 1990, dated 1992).

For one data set, the system named is Aspergillus niger. Nature of the data set: Antimicrobial study against Aspergillus niger (mold). Type of data set: cell-based. The settings on record: methylolated C8/10 10,800 ppm, methylolated lauric 11,400 ppm, DMDMH 3,000 ppm, others 14,700 ppm. The protocol:
(§1) The antimicrobial properties of typical esters (I) and (Ia) were tested by minimum inhibitory concentration (MIC) tests, along with certain known substances, against […] strains of organisms: a mold, Aspergillus niger; a gram-positive bacteria, Staphylococcus aureus; and two gram-negative bacteria, Escherichia coli and Pseudomonas aeruginosa. […] These tests were used to determine any effect on biocidal activity of the varying chain length of the ester.
(§2) The known substances, on which identical tests were also performed, included the biocide, dimethyloldimethylhydantoin or DMDMH (iv), and a series of three surfactants, i.e., the three common emulsifiers, sodium lauryl sulfate (SLS); ethylene glycol distearate (EGDS), in the form of the commercial product PEGOSPERSE 50 DS (Lonza Inc.); and polyoxyethylene 20 sorbitan monoleate (POE 20 SMO), in the form of the commercial product GLYCOSPERSE 0 20 (Lonza Inc.).
(§3) The tests entailed contaminating a preexisting micro-colony with a known quantity (ppm, concentration) of test material. Each colony was then examined periodically over a one week period. […] A test was deemed non-efficacious when there was no decrease in colony size. In an effort to avoid any possible solvent effect, the micro-study was conducted in a totally aqueous solvent system without use of any other solvent.

The test system of another data set is Staphylococcus aureus. Nature of the data set: Antimicrobial study against Staphylococcus aureus (gram-positive bacteria). Type of data set: cell-based. The settings on record: methylolated C8/10 10,800 ppm, methylolated lauric 11,400 ppm, DMDMH 3,000 ppm, others 14,700 ppm. How it is done:
as §1, §2, §3

The next data set concerns Escherichia coli. Nature of the data set: Antimicrobial study against Escherichia coli (gram-negative bacteria). The class given is cell-based. The settings on record: methylolated C8/10 10,800 ppm, methylolated lauric 11,400 ppm, DMDMH 3,000 ppm, others 14,700 ppm. How it is done: as §1, §2, §3
Another data set concerns Pseudomonas aeruginosa. Nature of the data set: Antimicrobial study against Pseudomonas aeruginosa (gram-negative bacteria). The class given is cell-based. To be noted: methylolated C8/10 10,800 ppm, methylolated lauric 11,400 ppm, DMDMH 3,000 ppm, others 14,700 ppm. How it is done: as §1, §2, §3
For data set [1] the following is noted: as formaldehyde donor; cited from earlier work.
The subject of data set [2] is mold, and gram-positive and gram-negative bacteria. Nature of the data set: Antimicrobial tests, overall biocidal effectiveness. Type of data set: cell-based. The settings on record: under the test conditions. The protocol:
as §1, §2, §3

A short description of data set [3]: Surface tension tests (cmc, Gibbs' Free Energy of Micellation). The class given is physicochemical. The protocol:
Surface tension tests were conducted as to the relationship between the fatty acid aliphatic chain length, i.e. number of carbon atoms, in the esters (I), and their performance as surfactants. The length of the hydrophobic chain of a molecule is considered the major contributing factor to the critical micelle concentration (cmc) value of a surfactant. This value is obtained from surface tension measurement data. The lower the cmc, the more readily the material will form micelles.
The Gibbs' Free Energy of Micellation (ΔG°cmc) and the ΔG°cmc per --CH2 -- can be determined if the cmc is known.
The ΔG°cmc is a calculated value obtained by Equation 1.
ΔG°cmc =2.303RT(log cmc-log[water]) (Eq. 1)
The ΔG°cmc per --CH2 -- value is obtained from the slope of the straight line curve formed from a plot of ΔG°cmc versus the number of carbon atoms in the lipophilic chain.
The cmc values were based on surface tension tests conducted with a tensiometer (Cenco-DuNoug Precision Model #70535, direct reading model) to determine the upward surface tension at the liquid-air surface of the test ester/water solution. The methods used to calibrate the tensiometer, calculate the "correction factor" (used to correct for the difference between the apparent and true surface tension), and collect data, were conducted as described in the manual for the instrument. Sodium lauryl sulfate (SLS) and distilled water were used as reference samples.
On completing data collection, plots of the surface tension (dynes) versus -log of the concentration (mols/liter) were prepared, using only the "corrected" surface tension value, obtained by applying the noted "correction factor" in each case. The […] was found by multiplying the "apparent" surface tension by a calculated correction factor.
The critical micelle concentration (cmc) for each sample was determined by locating the point in the curve where the surface tension first begins to level off, per a known procedure.

Take `CC1(C)C(=O)N(CO)C(=O)N1CO` [DMDMH (iv), 1,3-dihydroxymethyl-5,5-dimethyl-1,3-diazacyclopentane-2,4-dione, reference compound]: the “Colony Count” value is on record as 400 × 1,000 in the data set on Aspergillus niger (Day 0); < 0.03 × 1,000 with Aspergillus niger (Day 1); < 0.01 × 1,000 in the data set with Aspergillus niger (Day 2); < 0.01 × 1,000 in the data set on Aspergillus niger (Day 3); < 0.01 × 1,000 in the data set with Aspergillus niger (Day 7); “TNC” in the data set on Staphylococcus aureus (Day 0). In addition, the “Colony Count” value in the data set with Staphylococcus aureus (Day 1) is recorded as “TNC”; in the data set with Staphylococcus aureus (Day 2), “TNC”; with Staphylococcus aureus (Day 3), < 0.01 × 1,000; in the data set with Staphylococcus aureus (Day 7), < 0.01 × 1,000; in the data set with Escherichia coli (Day 0) it was “TNC”; in the data set with Escherichia coli (Day 1), “TNC”. Moreover, the “Colony Count” value with Escherichia coli (Day 2) is “TNC”; in the data set with Escherichia coli (Day 3), < 0.01 × 1,000; in the data set with Escherichia coli (Day 7), < 0.01 × 1,000; in the data set with Pseudomonas aeruginosa (Day 0) it was “TNC”; with Pseudomonas aeruginosa (Day 1), “TNC”; in the data set on Pseudomonas aeruginosa (Day 2) it was < 0.01 × 1,000. Also, the “Colony Count” value with Pseudomonas aeruginosa (Day 3) and with Pseudomonas aeruginosa (Day 7) was < 0.01 × 1,000 in each case. In data set [1], the “minimum inhibitory concentration (MIC)” value is listed as 0.1%.
As for `CC1(C)C(=O)NC(=O)N1CO` [MDMH (iii), 1-hydroxymethyl-5,5-dimethyl-1,3-diazacyclopentane-2,4-dione], the “minimum inhibitory concentration (MIC)” value in data set [1] is 0.2%.
For the compound `CCCCCCCCCCCCCCCCCC(=O)OCCOC(=O)CCCCCCCCCCCCCCCCC` [EGDS, ethylene glycol distearate, reference compound], the “Colony Count” value is 2,000 × 1,000 in the data set on Aspergillus niger (Day 0); 500 × 1,000 with Aspergillus niger (Day 1); 300 × 1,000 with Aspergillus niger (Day 2); 200 × 1,000 in the data set on Aspergillus niger (Day 3); 700 × 1,000 with Aspergillus niger (Day 7); 600 × 1,000 in the data set with Staphylococcus aureus (Day 0). Moreover, the “Colony Count” value in the data set with Staphylococcus aureus (Day 1) is given as 350 × 1,000; in the data set on Staphylococcus aureus (Day 2), “TNC”; in the data set on Staphylococcus aureus (Day 3), “TNC”; with Staphylococcus aureus (Day 7), 2,000 × 1,000; in the data set on Escherichia coli (Day 0), 2,000 × 1,000; in the data set on Escherichia coli (Day 1) it was “TNC”. In addition, the “Colony Count” value in the data set on Escherichia coli (Day 2) was “TNC”; in the data set on Escherichia coli (Day 3) it was “TNC”; in the data set on Escherichia coli (Day 7), “TNC”; with Pseudomonas aeruginosa (Day 0) it was 3,000 × 1,000; in the data set on Pseudomonas aeruginosa (Day 1), “TNC”; in the data set with Pseudomonas aeruginosa (Day 2), “TNC”. Also, the “Colony Count” value in the data set on Pseudomonas aeruginosa (Day 3) is 2,500 × 1,000; in the data set on Pseudomonas aeruginosa (Day 7), “TNC”. For the same compound, the biocidal effectiveness entry in data set [2] is “none of the three known long aliphatic chain containing emulsifiers, sodium lauryl sulfate, ethylene glycol distearate and POE 20 sorbitan monoleate, was effective as a biocide”.
Turning to `CCCCCCCCCCCCOS(=O)(=O)[O-].[Na+]` [SLS, Sodium lauryl sulfate, reference compound], the “ΔG°cmc” value in data set [3] (Table 6) is -5.552 kcal/mol. Further, the “ΔG°cmc (Gibbs' Free Energy of Micellation)” value in data set [3] (calculated from cmc by Eq. 1, T=298° K.) was -5.552 kcal/mol. Besides, in data set [3] (ester/water solution), the “cmc (critical micelle concentration)” value is listed as 4.4 × 10^-3 mol dm^-3. For the same compound, the “Colony Count” value with Aspergillus niger (Day 0) is 600 × 1,000; in the data set on Aspergillus niger (Day 1) it was 2,000 × 1,000; in the data set on Aspergillus niger (Day 2) it was 300 × 1,000; in the data set with Aspergillus niger (Day 3), 160 × 1,000; in the data set with Aspergillus niger (Day 7), 200 × 1,000; in the data set with Staphylococcus aureus (Day 0) it was 2,000 × 1,000. Besides, the “Colony Count” value with Staphylococcus aureus (Day 1) is listed as 3,000 × 1,000; with Staphylococcus aureus (Day 2), “TNC”; with Staphylococcus aureus (Day 3) it was 450 × 1,000; with Staphylococcus aureus (Day 7), < 0.01 × 1,000; in the data set with Escherichia coli (Day 0) it was 8,000 × 1,000; with Escherichia coli (Day 1), 20 × 1,000. The “Colony Count” value in the data set on Escherichia coli (Day 2) is given as “TNC”; with Escherichia coli (Day 3), 160 × 1,000; in the data set with Escherichia coli (Day 7), 60 × 1,000; in the data set with Pseudomonas aeruginosa (Day 0), 4,100 × 1,000; with Pseudomonas aeruginosa (Day 1), 500 × 1,000; in the data set with Pseudomonas aeruginosa (Day 2), “TNC”. Also, the “Colony Count” value is 30 × 1,000 in the data set on Pseudomonas aeruginosa (Day 3) and 50 × 1,000 in the data set on Pseudomonas aeruginosa (Day 7). Moreover, the biocidal effectiveness result in data set [2] was “none of the three known long aliphatic chain containing emulsifiers, sodium lauryl sulfate, ethylene glycol distearate and POE 20 sorbitan monoleate, was effective as a biocide”.
